What follows are molecules tested against T1, CXCR4 receptors (Homo sapiens, UniProt P61073) (assay: CXCR4-CEM calcium flux assay, antagonist mode (inhibition of SDF-1α-induced calcium flux)). Conditions: inhibition of calcium flux induced by 4 nM SDF-1α in CCRF-CEM cells.
T1 construct: expressing endogenous CXCR4 receptors; endogenous in cells; host or cells: CCRF-CEM (human T lymphoblast cells)
Format: cell-based
Experimental: Exemplary compounds of the invention were tested for their ability to induce or inhibit calcium flux in CCRF-CEM cells. […] CXCR4-CEM Calcium Flux Assays. […] The cells were then equilibrated to room temperature for 30 minutes before assay. […] The serially diluted compounds were diluted to working concentrations with the same assay buffer to 0.5% DMSO. […] Activity of the compounds to induce calcium flux was monitored by FDSS in the “agonist mode” for 90 sec. For “antagonist mode” assessment, the cells are subsequently incubated for 25 min at room temperature. SDF-1α (R&D System Cat#350-NS/CF) was then added at a final concentration of 4 nM to stimulate the cells. Inhibition of SDF-1α-induced calcium flux was monitored by FDSS6000 for 90 sec. […] After correcting for background, EC50 values were determined. […] Inhibition data for the test compound over a range of concentrations was plotted as percentage inhibition of the test compound as compared to an internal control compound.

T1 sequence (P61073 whole entry): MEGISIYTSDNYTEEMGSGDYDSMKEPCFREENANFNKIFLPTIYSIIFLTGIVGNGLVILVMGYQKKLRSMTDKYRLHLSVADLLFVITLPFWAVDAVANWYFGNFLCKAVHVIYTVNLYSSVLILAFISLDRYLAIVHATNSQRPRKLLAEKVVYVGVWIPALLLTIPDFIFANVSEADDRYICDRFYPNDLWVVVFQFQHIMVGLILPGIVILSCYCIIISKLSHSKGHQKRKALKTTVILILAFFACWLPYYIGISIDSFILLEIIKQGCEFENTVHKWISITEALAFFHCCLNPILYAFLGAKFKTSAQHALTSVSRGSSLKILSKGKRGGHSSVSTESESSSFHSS

SMILES | IC50
CN(Cc1cn2c(N3CCNC(c4ccccc4)C3)nccc2n1)[C@H]1CCCc2cccnc21 (single isomer, unassigned) [Example 78] | 11 nM
CN(Cc1cn2c(N3CCNC(c4ccccc4)C3)nccc2n1)[C@H]1CCCc2cccnc21 (single isomer, unassigned) [Example 79] | 56 nM
CN(Cc1cn2c(N3CCN4CCOCC4C3)nccc2n1)[C@H]1CCCc2cccnc21 (single isomer, unassigned) [Example 91] | > 30000 nM
CN(Cc1cn2c(N3CCN4CCOCC4C3)nccc2n1)[C@H]1CCCc2cccnc21 (single isomer, unassigned) [Example 92] | 290 nM
CN(Cc1cn2c(N3CC4CCCNC4C3)nccc2n1)[C@H]1CCCc2cccnc21 (single isomer, unassigned) [Example 95] | 24 nM
CN(Cc1cn2c(N3CC4CCCNC4C3)nccc2n1)[C@H]1CCCc2cccnc21 (single isomer, unassigned) [Example 96] | 220 nM
CN(Cc1cn2c(N3CCN(C(=O)OC(C)(C)C)CC3)nccc2n1)[C@H]1CCCc2cccnc21 [Example 3, (S)-tert-Butyl 4-(2-((methyl(5,6,7,8-tetrahydroquinolin-8-yl)amino)methyl)imidazo[1,2-c]pyrimidin-5-yl)piperazine-1-carboxylate] | > 30000 nM
CN1CCN(c2nccc3nc(CN(C)[C@H]4CCCc5cccnc54)cn23)CC1 [Example 4, (S)—N-Methyl-N-((5-(4-methylpiperazin-1-yl)imidazo[1,2-c]pyrimidin-2-yl)methyl)-5,6,7,8-tetrahydroquinolin-8-amine] | 2.5 nM
CN(Cc1cn2c(N3CCNCC3)nccc2n1)[C@H]1CCCc2cccnc21 [Example 5, (S)—N-Methyl-N-((5-(piperazin-1-yl)imidazo[1,2-c]pyrimidin-2-yl)methyl)-5,6,7,8-tetrahydroquinolin-8-amine] | 8.1 nM
CN(Cc1nc2ccnc(N3CCNCC3)n2c1CO)[C@H]1CCCc2cccnc21 [Example 6, (S)-(2-((Methyl(5,6,7,8-tetrahydroquinolin-8-yl)amino)methyl)-5-(piperazin-1-yl)imidazo[1,2-c]pyrimidin-3-yl)methanol] | 3.8 nM
CN1CCN(c2nccc3nc(CN(C)[C@H]4CCCc5cccnc54)c(CO)n23)CC1 [Example 7, (S)-(2-((Methyl(5,6,7,8-tetrahydroquinolin-8-yl)amino)methyl)-5-(4-methylpiperazin-1-yl)imidazo[1,2-c]pyrimidin-3-yl)methanol] | 2.4 nM
CSc1nccc2nc(CN(C)[C@H]3CCCc4cccnc43)cn12 [Example 8, (S)—N-Methyl-N-((5-(methylthio)imidazo[1,2-c]pyrimidin-2-yl)methyl)-5,6,7,8-tetrahydroquinolin-8-amine] | 89 nM
CN(Cc1cn2c(N3CCOCC3)nccc2n1)[C@H]1CCCc2cccnc21 [Example 9, (S)—N-Methyl-N-((5-morpholinoimidazo[1,2-c]pyrimidin-2-yl)methyl)-5,6,7,8-tetrahydroquinolin-8-amine] | 25500 nM
CC(=O)N1CCN(c2nccc3nc(CN(C)[C@H]4CCCc5cccnc54)cn23)CC1 [Example 10, (S)-1-(4-(2-((Methyl(5,6,7,8-tetrahydroquinolin-8-yl)amino)methyl)imidazo[1,2-c]pyrimidin-5-yl)piperazin-1-yl)ethanone] | 8600 nM
CN(Cc1cn2c(N3CCN(CCO)CC3)nccc2n1)[C@H]1CCCc2cccnc21 [Example 11, (S)-2-(4-(2-((Methyl(5,6,7,8-tetrahydroquinolin-8-yl)amino)methyl)imidazo[1,2-c]pyrimidin-5-yl)piperazin-1-yl)ethanol] | 13 nM
CN(Cc1cn2c(N3CCN(CCF)CC3)nccc2n1)[C@H]1CCCc2cccnc21 [Example 12, (S)—N-((5-(4-(2-Fluoroethyl)piperazin-1-yl)imidazo[1,2-c]pyrimidin-2-yl)methyl)-N-methyl-5,6,7,8-tetrahydroquinolin-8-amine] | 54 nM
COC(=O)N1CCN(c2nccc3nc(CN(C)[C@H]4CCCc5cccnc54)cn23)CC1 [Example 13, (S)-Methyl 4-(2-((methyl(5,6,7,8-tetrahydroquinolin-8-yl)amino)methyl)imidazo[1,2-c]pyrimidin-5-yl)piperazine-1-carboxylate] | 5670 nM
CCNC(=O)N1CCN(c2nccc3nc(CN(C)[C@H]4CCCc5cccnc54)cn23)CC1 [Example 14, (S)—N-ethyl-4-(2-((methyl(5,6,7,8-tetrahydroquinolin-8-yl)amino)methyl)imidazo[1,2-c]pyrimidin-5-yl)piperazine-1-carboxamide] | 1230 nM
CN(Cc1cn2c(N3CCN(S(C)(=O)=O)CC3)nccc2n1)[C@H]1CCCc2cccnc21 [Example 15, (S)—N-Methyl-N-((5-(4-(methylsulfonyl)piperazin-1-yl)imidazo[1,2-c]pyrimidin-2-yl)methyl)-5,6,7,8-tetrahydroquinolin-8-amine] | 750 nM
CN(Cc1cn2c(N3CCN(CCN)CC3)nccc2n1)[C@H]1CCCc2cccnc21 [Example 16, (S)—N-((5-(4-(2-Aminoethyl)piperazin-1-yl)imidazo[1,2-c]pyrimidin-2-yl)methyl)-N-methyl-5,6,7,8-tetrahydroquinolin-8-amine] | 540 nM
[2H]C([2H])([2H])N1CCN(c2nccc3nc(CN(C)[C@H]4CCCc5cccnc54)cn23)CC1 [Example 17, (S)—N-Methyl-N-((5-(4-(methyl-d3)piperazin-1-yl)imidazo[1,2-c]pyrimidin-2-yl)methyl)-5,6,7,8-tetrahydroquinolin-8-amine] | 3.7 nM
CN(Cc1cn2c(N3CCN(CCc4ccccc4)CC3)nccc2n1)[C@H]1CCCc2cccnc21 [Example 18, (S)-N-methyl-N-({5-[4-(2-phenylethyl)piperazin-1-yl]imidazo[1,2-c]pyrimidin-2-yl}methyl)-5,6,7,8-tetrahydroquinolin-8-amine] | 14 nM
CC(C)CCN1CCN(c2nccc3nc(CN(C)[C@H]4CCCc5cccnc54)cn23)CC1 [Example 19, (S)-N-methyl-N-({5-[4-(3-methylbutyl)piperazin-1-yl]imidazo[1,2-c]pyrimidin-2-yl}methyl)-5,6,7,8-tetrahydroquinolin-8-amine] | 14 nM
CC(C)N1CCN(c2nccc3nc(CN(C)[C@H]4CCCc5cccnc54)cn23)CC1 [Example 20, (S)-N-methyl-N-({5-[4-(propan-2-yl)piperazin-1-yl]imidazo[1,2-c]pyrimidin-2-yl}methyl)-5,6,7,8-tetrahydroquinolin-8-amine] | 9.6 nM
CN(Cc1cn2c(N3CCN(CC4CC4)CC3)nccc2n1)[C@H]1CCCc2cccnc21 [Example 21, (8S)-N-({5-[4-(cyclopropylmethyl)piperazin-1-yl]imidazo[1,2-c]pyrimidin-2-yl}methyl)-N-methyl-5,6,7,8-tetrahydroquinolin-8-amine] | 17 nM
CC(C)CN1CCN(c2nccc3nc(CN(C)[C@H]4CCCc5cccnc54)cn23)CC1 [Example 22, (S)-N-methyl-N-({5-[4-(2-methylpropyl)piperazin-1-yl]imidazo[1,2-c]pyrimidin-2-yl}methyl)-5,6,7,8-tetrahydroquinolin-8-amine] | 42 nM
CN(Cc1cn2c(N3CCN(C4CCCCC4)CC3)nccc2n1)[C@H]1CCCc2cccnc21 [Example 23, (S)-N-{[5-(4-cyclohexylpiperazin-1-yl)imidazo[1,2-c]pyrimidin-2-yl]methyl}-N-methyl-5,6,7,8-tetrahydroquinolin-8-amine] | 770 nM
